Entries after “also recorded” stand apart in the source; their conditions may differ. Blank lines part the entries; values can stand above or below the molecule they belong to.
Tests used:
[1] = target: T1, OR52E8 (Homo sapiens, UniProt Q6IFG1); type: cell-based
T1 construct: Improved functional expression of modified OR-genes containing the truncated, optimized C-terminus; expressed in transfected cells; host or cells: HEK293T stably expressing human RTP1S(V227I) and RTP2(L220R)
Excerpt: Activation of OR52E8 by odorant acids present in human sweat (Natsch et al. A specific bacterial aminoacylase cleaves odorant precursors secreted in the human axilla. The Journal of biological chemistry 2003; 278(8):5718-5727) was investigated with different variants of the parent receptor sequence. The wild-type variant was not activated by the acids. […] However, using the optimized sequence from Examples 1-5 led to a strong signal upon addition of 3-methyl-3-hydroxy hexanoic acid.
These two improvements were further combined and the combination was tested on OR52A5 and two further class I receptors. […] In the case of OR52A4, 4-ethyloctanoic acid, which is detected at low concentrations by the human nose, is detected with a high luciferase response already at 0.19 μM by the receptor with the C-terminal modification showing very sensitive detection of this carboxylic acid by the modified class I receptor.

[2] = target: T2, OR1C1 (Homo sapiens, UniProt Q15619); type: cell-based; conditions: changed C-term. vs wild-type
T2 construct: Improved functional expression of modified OR-genes containing the truncated, optimized C-terminus; expressed in transfected cells; host or cells: HEK293T stably expressing human RTP1S(V227I) and RTP2(L220R)
T2 sequence (Q15619 with tags, fused parts or gaps): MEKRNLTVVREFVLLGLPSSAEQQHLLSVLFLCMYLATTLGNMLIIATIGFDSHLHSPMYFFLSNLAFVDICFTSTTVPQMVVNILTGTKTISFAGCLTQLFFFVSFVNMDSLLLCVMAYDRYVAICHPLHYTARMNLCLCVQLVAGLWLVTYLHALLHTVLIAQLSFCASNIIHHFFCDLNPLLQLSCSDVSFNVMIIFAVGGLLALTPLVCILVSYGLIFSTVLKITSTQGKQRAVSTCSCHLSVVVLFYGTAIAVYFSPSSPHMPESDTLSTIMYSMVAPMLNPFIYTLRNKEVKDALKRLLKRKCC

[3] = target: T3, OR5A2 (Homo sapiens, UniProt Q8NGI9); experiment: CRE-luciferase assay, HEK293T cells expressing OR5A2 (wild-type / modified C-terminus); type: cell-based
T3 construct: Improved functional expression of modified OR-genes containing the truncated, optimized C-terminus; expressed in transfected cells; host or cells: HEK293T with stably integrated human RTP1S(V227I) and RTP2(L220R)
T3 sequence (Q8NGI9 with tags, fused parts or gaps): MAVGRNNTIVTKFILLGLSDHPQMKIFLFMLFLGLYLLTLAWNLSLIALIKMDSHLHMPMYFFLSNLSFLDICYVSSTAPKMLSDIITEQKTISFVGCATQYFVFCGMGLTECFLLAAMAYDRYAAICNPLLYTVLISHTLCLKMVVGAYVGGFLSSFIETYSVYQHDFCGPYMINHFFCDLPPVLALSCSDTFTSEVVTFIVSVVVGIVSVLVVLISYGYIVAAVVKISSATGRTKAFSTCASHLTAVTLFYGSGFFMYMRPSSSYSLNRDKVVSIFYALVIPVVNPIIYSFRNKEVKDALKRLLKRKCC

[4] = target: T4, OR5AN1 (Homo sapiens, UniProt Q8NGI8); experiment: Luciferase assay with chimeric OR5AN1 carrying the C-terminal sequence of OR1N2; type: cell-based
T4 construct: Lucy part is a cleavable signal peptide) (N); expressed in transfected cells
T4 sequence (Q8NGI8 with tags, fused parts or gaps limits assumed): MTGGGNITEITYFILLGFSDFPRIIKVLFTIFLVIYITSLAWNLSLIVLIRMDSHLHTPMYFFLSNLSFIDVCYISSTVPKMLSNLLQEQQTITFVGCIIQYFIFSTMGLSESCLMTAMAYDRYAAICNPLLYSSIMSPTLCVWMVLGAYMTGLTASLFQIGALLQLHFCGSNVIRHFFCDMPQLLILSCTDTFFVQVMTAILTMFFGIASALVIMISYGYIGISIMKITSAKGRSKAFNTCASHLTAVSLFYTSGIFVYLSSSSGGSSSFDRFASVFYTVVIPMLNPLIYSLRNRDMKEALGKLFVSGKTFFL
Excerpt: Similarly, the C-terminal sequence of OR5AN1 was replaced with the C-terminal sequence of the ambrettolide receptor OR1N2.

[5] = tested on: library of all human class II OR; experiment: Screening of the library of all class II OR (n=408, C-terminal domain SEQ ID NO: 221) with single odorants, luciferase induction; type: cell-based
Method: All human class II OR and all key genetic variants of these OR were synthesized with a sequence coding for an identical modified C-terminal domain […] (SEQ ID NO: 221) in the vector pcDNA3.1(+) to generate a library of all class II OR with an improved C-terminal domain.
Parallel transfection experiments were conducted with all these plasmids (n=408) and cells expressing the different OR were stimulated with one given ligand at a time, tested at the maximal, clearly non-cytotoxic concentration. In total 26 different ligands were tested on the full library of class II receptors.

[6] = tested on: human class II OR identified in the library screening; experiment: Confirmatory dose-response analysis of library-hit OR with cognate ligand, wild-type vs C-terminal domain SEQ ID NO: 221 (Table 17);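 note: Wild-type receptor sequences expressed from the pcDNA3.1(+) vector and compared with the C-terminally modified receptors in dose-response tests using each receptor's cognate ligand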
Method: Selected ligand—OR pairs were then tested in a confirmatory test with a dose response analysis.
For selected receptors, the wild-type sequence was synthesized and cloned into pcDNA3.1 (+). Dose-response analysis with the cognate ligand was then performed for both the wild-type and the modified sequence.

[7] = tested on: library of human class II OR; experiment: Screening of the class II OR library with a mixture of odorants of one odor description; type: cell-based; conditions: OR with C-terminal domain SEQ ID NO: 221
Excerpt: Single odorants may trigger activation of multiple OR as shown by the case of Ambrofix in example 18, which activates the specific receptors OR7E24 and OR7A17. On the other hand, multiple odorants may be perceived as and described by certain common odor descriptors due to their common activation of a given set of OR. To trigger a specific odor sensation, thus a specific set of OR may need to be activated. This specific OR set can be identified by mixing several odorants with a given odor description. The mixture is then screened on the full library of OR. The identified set of OR can then be further used to screen for that particular odor description. For example, to identify a typical set of OR for the odor description of “fruity esters”, a mixture of the following compounds was made: Pentanoic acid, 2-methyl ethyl ester; Butanoic acid, 3-methyl-, ethyl ester; Acetic acid, phenoxy-, 2-propenyl ester; Hexanoic acid, ethyl ester; Acetic acid, (3-methylbutoxy)-, 2-propenyl ester; Acetic acid, (cyclohexyloxy)-, 2-propenyl ester; Butanoic acid, 2-methyl-, (3Z/E)-3-hexenyl ester; Cyclohexanecarboxylic acid, ethyl ester and Oxiranecarboxylic acid, 3-phenyl, ethyl ester. This mixture was screened against the full library of OR as described in example 18. […]

T1 sequence (Q6IFG1 with tags, fused parts or gaps): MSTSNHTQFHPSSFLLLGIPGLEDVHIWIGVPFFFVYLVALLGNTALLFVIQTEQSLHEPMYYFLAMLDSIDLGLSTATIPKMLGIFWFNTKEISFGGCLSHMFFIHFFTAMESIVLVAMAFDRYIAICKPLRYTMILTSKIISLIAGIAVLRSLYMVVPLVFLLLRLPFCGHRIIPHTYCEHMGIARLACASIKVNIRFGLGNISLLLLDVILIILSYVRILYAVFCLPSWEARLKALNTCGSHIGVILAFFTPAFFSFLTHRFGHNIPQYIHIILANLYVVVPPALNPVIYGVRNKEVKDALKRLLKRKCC

concentration at which induction starts ([3]; OR5A2 with modified C-terminus): 0.03 µM | concentration at which activation occurs ([3]; modified OR5A2, SEQ ID NO: 86): 1 µM | functional response of chimeric OR5AN1 [4]: not showing any functional response
Molecule: C[C@@H]1CCCCCCCCCCCCC(=O)C1 [Muscone, reference compound]
Activated OR and OR variants ([5]; ligand at maximal non-cytotoxic concentration, full class II library): OR5AN1, OR5A2

Fold luciferase induction (20 ppm fruity ester mix) [7]: 7.2
B1: OR11G2: class II OR with C-terminal domain SEQ ID NO: 221 (protein, UniProt Q8NGC1 1-345, looked up)
Olfactory receptor 11G2: MHFLSQNDLNINLIPHLCLHRHSVIAGAFTIHRHMKIFNSPSNSSTFTGFILLGFPCPREGQILLFVLFTVVYLLTLMGNGSIICAVHWDQRLHAPMYILLANFSFLEICYVTSTVPSMLANFLSDTKIISFSGCFLQFYFFFSLGSTECFFLAVMAFDRYLAICRPLRYPTIMTRRLCTNLVVNCWVLGFIWFLIPIVNISQMSFCGSRIIDHFLCDPAPLLTLTCKKGPVIELVFSVLSPLPVFMLFLFIVGSYALVVRAVLRVPSAAGRRKAFSTCGSHLAVVSLFYGSVLVMYGSPPSKNEAGKQKTVTLFYSVVTPLLNPVIYSLRNKDMRKALKKFWGT

Fold luciferase induction (20 ppm fruity ester mix) [7]: 8.9
B2: OR2L5: class II OR with C-terminal domain SEQ ID NO: 221 (protein, UniProt Q8NG80 1-312, looked up)
Olfactory receptor 2L5: MENYNQTSTDFILLGLFPPSKIGLFLFILFVLIFLMALIGNLSMILLIFLDTHLHTPMYFLLSQLSLIDLNYISTIVPKMASDFLYGNKSISFIGCGIQSFFFMTFAGAEALLLTSMAYDRYVAICFPLHYPIRMSKRMYVLMITGSWMIGSINSCAHTVYAFRIPYCKSRAINHFFCDVPAMLTLACTDTWVYEYTVFLSSTIFLVFPFTGIACSYGWVLLAVYRMHSAEGRKKAYSTCSTHLTVVTFYYAPFAYTYLCPRSLRSLTEDKVLAVFYTILTPMLNPIIYSLRNKEVMGALTRVIQNIFSVKM

Second part, the molecule before the results:

Molecule: CCCC(C)(O)CC(=O)O (centres unmarked) [3-Methyl-3-Hydroxy-Hexanoic acid, 3-Methyl-3-hydroxyhexanoic acid]
Comments on efficacy [1]: No induction | Fold-improvement potency ([1]; changed C-term. vs wild-type): >>5 | Fold-improvement threshold ([1]; changed C-term. vs wild-type): >>5

Molecule: C=CC(C)(O)CCC=C(C)C (centres unmarked) [Linalool]
Fold-improvement potency [2]: 1.9 | Fold-improvement threshold [2]: 2.1

Molecule: CC(=O)c1c(C)c([N+](=O)[O-])c(C(C)(C)C)c([N+](=O)[O-])c1C [Musk ketone]
functional response of chimeric OR5AN1 [4]: not showing any functional response

Molecule: C[C@H]1CC[C@@]2(O)C(C)(C)[C@@H]3CC[C@@]2(C)[C@H]1C3 [Patchoulol]
induction in the library screening ([5]; 50 μM Patchoulol): strong induction of OR14J1; also recorded: weak induction of OR11A1 and OR7A17 | Detection threshold; concentration for 2-fold induction, changed C-term. ([6]; OR14J1, modified C-terminus SEQ ID NO: 221 (SEQ ID NO: 738)): 0.45 µM | Fold improvement efficacy ([6]; OR14J1, modified C-terminus SEQ ID NO: 221 vs wild-type, maximal induction): 33.4 fold | EC50 ([6]; read-out: Potency, EC50 changed C-term, OR14J1, modified C-terminus SEQ ID NO: 221 (SEQ ID NO: 738)): 2200 nM | activity of the wild-type OR ([6]; wild-type sequence, cognate ligand): inactive

— US20260210939A1, “MODIFIED OLFACTORY RECEPTORS” (GIVAUDAN SA, priority 2022, published 2026)
